Measurements as given in patent US20120225909A1, “INDAZOLE ANALOG” (priority 2009, published 2012).

Tests used:
[1] = biological target: T1, human β1-adrenergic receptor (Homo sapiens, UniProt P08588); test: Test Case 2-C: human β1-adrenergic receptor agonist activity (Cerep cellular functional GPCR, beta 1); type: cell-based; conditions: concentration 10 μM, isoproterenol = 100%
T1 construct: expressed in transfected cells; host or cells: CHO (Chinese hamster ovary) cells, pcDNA3
Text: Measurement of Human β1-Adrenergic Receptor Agonist Activity

[2] = biological target: T2, human β2-adrenergic receptor (Homo sapiens, UniProt P07550); test: Test Case 3-B: human β2-adrenergic receptor agonist activity; type: cell-based; conditions: read-out: β2 receptor I.A.
T2 construct: expressed in transfected cells; host or cells: CHO (Chinese hamster ovary) cells, pcDNA3
Procedure: (§1) Measurement of Human β2-Adrenergic Receptor Agonist Activity
The human β2-adrenergic receptor agonist activity is measured by the same method as in Test Case 1-B using CHO (Chinese hamster ovary) cells transfected by a human β2 gene inserted in pcDNA3 (Invitrogen).

[3] = tested on: pentobarbital-anesthetized rats; test: Test Case 9: effects on the blood pressure and heart rate in pentobarbital-anesthetized rats; type: in vivo, rat; conditions: anesthetized male SD rats; 3 mg/kg intravenous over 30 seconds; maximum change, mean±standard deviation
Procedure: Effects on the blood pressure and heart rate in pentobarbital-anesthetized rats
The blood pressure and heart rate of rats under pentobarbital anesthesia are measured, and the effects of rapid intravenous administration of the test compound on the blood pressure and heart rate can be studied. After anesthetizing male SD rats (Japan SLC) by intraperitoneal administration of 50 mg/kg of pentobarbital sodium (Tokyo Chemical Industry Co., Ltd.), 25 mg/kg of pentobarbital sodium is administered subcutaneously as maintenance anesthesia. The left femoral vein is exposed and stripped, and a SP10 polyethylene tube filled with saline (connected to a three-way stopcock via a ¼ venous needle) is inserted and left in place in the vein.
The inside of the left thigh is cut, and the femoral artery is exposed and stripped. A polyethylene tube filled with heparinized physiological saline solution (SP31, connected to a three-way stopcock via a Terumo injection needle 22G) is inserted and connected to a pressure transducer. The blood pressure is measured from the pressure transducer via a strain pressure amplifier (AP-641G, Nihon Kohden). The heart rate is measured with the pulse wave of the blood pressure as a trigger via a heart rate counter (AT-601G, Nihon Kohden). The blood pressure, mean blood pressure, and heart rate are output to a recorder and recorded. Furthermore, the mean blood pressure is recorded via the strain pressure amplifier (AP-641G) using the formula {[…]}.
Specifically, 3 mg/mL of test compound is administered rapidly at a volume of 1 mL/kg. The relative value (%) of the values at each point in time versus the mean blood pressure and heart rate before beginning administration are determined for each individual, and the mean±standard deviation of the relative value (%) at the time of the maximum change in each parameter is determined.

[4] = biological target: T3, human α1A-adrenergic receptor (Homo sapiens, UniProt P35348); test: Test Case 4-B: human α1A-adrenergic receptor agonist activity (Cerep cellular functional GPCR, alpha 1A); type: cell-based; parameters: expressed in transfected cells; conditions: concentration 10 μM; for α1 receptor % of Control Agonist Response, Control; Epinephrine: epinephrine = 100%; for α1 receptor % of Control Agonist Response, Control; Norepinephrine: norepinephrine = 100%
T3 sequence (P35348 1-466): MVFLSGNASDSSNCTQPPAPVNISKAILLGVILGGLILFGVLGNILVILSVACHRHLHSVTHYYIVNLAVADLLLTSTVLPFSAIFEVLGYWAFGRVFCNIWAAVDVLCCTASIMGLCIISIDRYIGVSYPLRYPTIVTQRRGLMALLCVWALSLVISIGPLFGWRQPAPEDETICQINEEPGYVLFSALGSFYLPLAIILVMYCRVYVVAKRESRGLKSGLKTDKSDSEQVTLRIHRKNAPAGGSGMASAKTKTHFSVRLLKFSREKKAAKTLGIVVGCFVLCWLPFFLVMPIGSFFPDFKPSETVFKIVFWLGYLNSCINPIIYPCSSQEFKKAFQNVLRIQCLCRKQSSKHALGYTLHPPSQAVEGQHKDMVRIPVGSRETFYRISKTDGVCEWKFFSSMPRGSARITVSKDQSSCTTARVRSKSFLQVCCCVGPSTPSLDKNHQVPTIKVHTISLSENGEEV
Text: Measurement of Human α1A-Adrenergic Receptor Agonist Activity
The human α1A-adrenergic receptor agonist activity] can be measured by […] Functional GPCR·Gs, alpha 1A (Ref. 722-36a) listed on p. 52 of the Cerep 2008 CATALOG IN VITRO PHARMACOLOGY & ADME-TOX.

[5] = biological target: T4, human β3-adrenergic receptor (Homo sapiens, UniProt P13945); test: Test Case 1-B: human β3-adrenergic receptor agonist activity (cAMP-Screen, 96-well); type: cell-based; conditions: for Emax: 0.5 h, read-out: β3 receptor I.A.; for EC50: CHO cells, cAMP
T4 construct: A full-length human β3 gene is obtained from a human genomic library (made by Clontech) using this as the probe; expressed in transfected cells; host or cells: CHO (Chinese hamster ovary) cells, pcDNA3
Summary of the method: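 CHO cells stably transfected with full-length human β3 gene, serum-starved 15 min, then exposed to serially diluted compound in Ham's F-12 with 100 mmol/L HEPES and 1 mmol/L IBMX (diluent concentrations) for 30 min. Cells lysed 30 min at 37 °C; cAMP quantified by cAMP-Screen immunoassay.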

[6] = biological target: T2, human β2-adrenergic receptor; test: Test Case 3-C: human β2-adrenergic receptor agonist activity (Cerep cellular functional GPCR, beta 2); type: cell-based; conditions: concentration 10 μM, isoproterenol = 100%
Text: as §1

[7] = tested on: Male C57BL/6 Cr mice; test: Test Case 10: mouse piloerection test; type: in vivo; conditions: 10 mg/kg i.v., Score 0
[8] = biological target: T4, human β3-adrenergic receptor; test: Test Case 1-A: human β3-adrenergic receptor agonist activity (cAMP-EIA, 24-well); type: cell-based; conditions: maximum response of isoproterenol = 100%
Procedure: Measurement of Human β3-Adrenergic Receptor Agonist Activity
The human β3-adrenergic receptor agonist activity is measured using CHO (Chinese hamster ovary) cells transfected by a human β3 gene inserted in pcDNA3 (Invitrogen). […] A full-length human β3 gene is obtained from a human genomic library (made by Clontech) using this as the probe. These cells are cultured in Ham's F-12 medium containing 10% fetal calf serum and 400 μg/mL genectin (Invitrogen). These cells are sown in 24-well plates to make 1×10^5 cells/well. After culturing for approximately 20 hours, they are allowed to stand for two hours in serum-free Ham's F-12 medium. […] After culturing for 30 minutes, the medium is removed, and 0.1 mL of 1 N NaOH is added and allowed to stand for 20 minutes. A quantity of 0.1 mL of 1 N acetic acid is added. After stirring, centrifugation is performed, and cAMP is assayed using a cAMP-EIA kit (made by Cayman).

[9] = tested on: common marmoset isolated bladder smooth muscle; test: Test Case 7: common marmoset isolated bladder smooth muscle relaxation test; conditions: KCl 40 mmol/L contracted marmoset bladder, papaverine 10^−4 mol/L relaxation = 100%
Procedure: Common Marmoset Isolated Bladder Smooth Muscle Relaxation Test
After sacrificing common marmosets (Japan CLEA) by exsanguination, they are laparotomized and the urinary bladder is removed. […] The specimens are loaded with one gram of resting tension and stabilized for 30 or more minutes. After the resting tension of the specimen has stabilized, a final concentration of 40 mmol/L of KCl is added repeatedly, and it is confirmed that the contraction in response to KCl has basically become constant. […] Taking that relaxation response as 100%, the relaxation rate (%) at test compound concentrations of […] is calculated.

T4 sequence (P13945 whole entry): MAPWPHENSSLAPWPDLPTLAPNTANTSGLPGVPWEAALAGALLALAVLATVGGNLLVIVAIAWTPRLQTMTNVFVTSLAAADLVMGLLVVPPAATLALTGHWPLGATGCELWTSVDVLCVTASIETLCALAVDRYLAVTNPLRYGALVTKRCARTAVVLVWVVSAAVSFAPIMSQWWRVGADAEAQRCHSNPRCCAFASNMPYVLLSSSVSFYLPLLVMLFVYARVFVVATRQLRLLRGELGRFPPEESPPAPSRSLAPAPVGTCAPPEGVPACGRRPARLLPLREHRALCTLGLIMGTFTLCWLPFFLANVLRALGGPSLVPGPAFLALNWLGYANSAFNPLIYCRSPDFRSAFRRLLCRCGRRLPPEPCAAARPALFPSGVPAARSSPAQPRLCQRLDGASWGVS
T2 sequence (P07550 whole entry): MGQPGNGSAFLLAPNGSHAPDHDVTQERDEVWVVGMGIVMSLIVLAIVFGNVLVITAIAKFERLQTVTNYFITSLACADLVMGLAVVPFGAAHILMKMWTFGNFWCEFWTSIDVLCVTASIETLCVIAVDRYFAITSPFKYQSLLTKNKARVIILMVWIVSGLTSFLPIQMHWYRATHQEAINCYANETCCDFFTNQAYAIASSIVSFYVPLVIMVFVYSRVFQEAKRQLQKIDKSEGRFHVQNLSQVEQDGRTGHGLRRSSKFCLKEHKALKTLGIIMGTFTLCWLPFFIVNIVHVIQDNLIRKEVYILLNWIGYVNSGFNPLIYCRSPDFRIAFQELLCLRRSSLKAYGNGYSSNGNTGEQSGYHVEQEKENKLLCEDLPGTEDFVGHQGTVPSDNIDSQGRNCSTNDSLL
T1 sequence (P08588 whole entry): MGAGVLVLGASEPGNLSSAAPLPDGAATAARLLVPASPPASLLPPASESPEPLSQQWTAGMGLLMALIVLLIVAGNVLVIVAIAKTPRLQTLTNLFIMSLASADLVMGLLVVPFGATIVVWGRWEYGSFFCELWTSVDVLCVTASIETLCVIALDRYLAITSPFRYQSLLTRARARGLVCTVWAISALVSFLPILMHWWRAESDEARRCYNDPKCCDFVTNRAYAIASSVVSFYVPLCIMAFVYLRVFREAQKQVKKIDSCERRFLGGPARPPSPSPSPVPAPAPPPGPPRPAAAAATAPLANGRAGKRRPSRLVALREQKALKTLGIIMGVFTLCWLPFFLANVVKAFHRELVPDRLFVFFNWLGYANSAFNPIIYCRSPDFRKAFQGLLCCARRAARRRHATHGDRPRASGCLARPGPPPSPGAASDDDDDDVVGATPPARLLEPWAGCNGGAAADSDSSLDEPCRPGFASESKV

| Compound | β1 receptor % of Control Agonist Response [1] [%] | Emax [2] [%] | increase in MBP (%) [3] [%] | α1 receptor % of Control Agonist Response, Control; Epinephrine [4] [%] | α1 receptor % of Control Agonist Response, Control; Norepinephrine [4] [%] | Emax [5] [%] | EC50 ([5]; Test Case 1-B) [µM] | β2 receptor % of Control Agonist Response [6] [%] | number of experimental animals matching Score 0 (no piloerection) ([7]; n=4, observation time 5 min) | number of experimental animals matching Score 0 (no piloerection) ([7]; n=4, observation time 15 min) | number of experimental animals matching Score 0 (no piloerection) ([7]; n=4, observation time 30 min) | number of experimental animals matching Score 0 (no piloerection) ([7]; n=4, observation time 60 min) | β3 receptor I.A. [8] [%] | relaxant activity (%) 10^−4M ([9]; 10^−4 M) [%] | relaxant activity (%) 10^−5M ([9]; 10^−5 M) [%] | β3 receptor I.A. ([5]; Test Case 1-B, maximum response of isoproterenol = 100%) [%] |
| --- | --- | --- | --- | --- | --- | --- | --- | --- | --- | --- | --- | --- | --- | --- | --- | --- |
| CCc1n[nH]c2cc(OCCNC[C@H](O)c3cccc(NS(=O)(=O)c4cn[nH]c4)c3)ccc12 [ex149] | 5.2 | 0 | 2.1 ± 1.9 | 8.5 | 7.3 | 100 | 0.012 | 0.2 | 4 | 4 | 4 | 4 | – | – | – | – |
| CCc1n[nH]c2cc(OCCNC[C@H](O)c3cccc(NS(=O)(=O)c4cnn(C)c4)c3)ccc12 [ex135, (R)-N-(3-(2-(2-(3-ethylindazol-6-yloxy)ethylamino)-1-hydroxyethyl)phenyl)-1-methylpyrazole-4-sulfonamide] | 3.7 | 7 | 5.6 ± 1.2 | 0 | 0 | 105 | 0.029 | 1.3 | 4 | 4 | 4 | 4 | – | – | – | – |
| CC(C)NCC(O)c1ccc(O)c(O)c1 (stereo not shown) [isoproterenol, reference compound] | – | – | – | – | – | – | – | – | – | – | – | – | 100 | 54.4 | 50.6 | 100 |
